Laboratory results: US20140249191A1, “Compositions for Controlling Vascularization in Ophthalmological and Dermatological Diseases” (AVIENNE PHARMACEUTICALS GMBH, priority 2011, published 2014)
Entries after “also recorded” stand apart in the source; their conditions may differ.

Experiments:
[1] = system: endothelial cells of different origin (lung, lymphatics and umbilical); experiment: Endothelial cell proliferation assay (direct cell counting); format: cell-based, human
Method: Primary endothelial cell lines (HMVEC-dLyAd—human dermal lymphatic microvascular endothelial cells (EC), dermal blood microvascular EC, HMVEC-LB lung blood microvascular EC, HMVEC-C cardiac human microvascular endothelial cells and MVEC-d—dermal microvascular EC) are from Cambrex Bio Science (Cambrex Bio Science Walkersville Inc., Walkersville, Md., USA). Cell lines are cultured according to the manufacturer's recommendations.
For proliferation assays, cells are seeded in 24- to 96-well plates in medium at different concentrations according to the cell type. After 24 hours, the medium is removed and replaced with fresh medium containing increasing concentrations of the compounds. The plates are then incubated for additional 24 to 72 hours, depending on the type of the experiment. Cells are then trypsinized and collected for direct counting. Results are plotted and expressed as means (±SE) for each compound and for a given concentration.

[2] = system: SAOS-2, Hela, HT29, U87MG and SK-N-DZ cells; experiment: Cytotoxic activity in cancer cell lines (cell numbers); format: cell-based; details: up to 20 μM; uncoated dishes or coated with vitronectin or fibrinogen
Method: For example, cytotoxic activity of AV-398 was determined in several cancer cell lines (SAOS-2, Hela, HT29, U87MG and SK-N-DZ cells) by assessing cell numbers after treating cell lines with varying concentration of up to 20 μM. Experiments were performed either on uncoated dishes, or on dishes coated with vitronectin or fibrinogen. In addition, tumor cell lines were treated in parallel with echistatin (Gan Z R et al (1998)). […] Similar data were recently published showing cytotoxic activity also only against MDA-MB-435 breast cancer cells (Dayam R et al, 2006).

ocular angiogenesis = experiment: Conjunctival incision ocular angiogenesis model; format: in vivo, white pigs; details: pigs, eye drops 100 μg/ml
From the text: AV-398 inhibits ocular angiogenesis in vivo in a widely accepted large animal model. The cornea is an ideal model system for angiogenesis in general, and more specifically for angiogenesis of the eye. The corneal angiogenesis assay is one of the most widely used in vivo assay for the evaluation of factors influencing angiogenesis (Auerbach R, 2003, Thiele W, 2006). One reason that makes the cornea an ideal object for observing neovascularisation is its normal lack of vascularity, maintained by different molecular mechanisms. New vessels can easily be identified by visual inspection alone and quantified with the help of computerized image analysis programs. The effect of an ophthalmological formulation of AV-398 after a conjunctival insult with subsequent angiogenesis in a large animal model was investigated in order to test whether the in vitro data, such as anti-proliferative effects on human endothelial cells, could be reproduced in vivo. Six white pigs weighing 10 to 15 kg were included. First, corneae and conjunctivae were anaesthesized by local application of lidocaine 4%. Then, an incision of 0.5 cm length through the conjunctival tunica sclerae to the substantia propria was placed in parallel to the dorsal corneal limbus at a distance of approximately 2 mm. The animals were treated as follows. […]

[3] = system: chorioallantoic membrane vascularisation; experiment: Chorioallantoic membrane (CAM) assay; format: in vivo, chicken embryo; details: applied on CAM day 6 p.f., incubated until day 11 p.f.
From the text: Local Application of AV-398 inhibits in vivo angiogenesis as evidenced by the chicken egg chorioallantoic membrane model. The chorioallantoic membrane (CAM) of the developing chicken embryo serves as an alternative to the traditional mammalian in vivo models, and further corroborates the findings in pigs described above and has clear relevance for the treatment e.g. dermatological indications linked to neoangiogenesis. AV-398 was applied over 5 days.
Eggs were opened on day 6 post fertilization (p.f.). Substances (200 μl respectively) were applied on the CAM on day 6 p.f. and incubated until day 11 p.f. As a vehicle control, 1% DMSO in PBS (phosphate-buffered saline solution pH 7.4) without AV-398 was used. Eggs were inspected daily by stereo-microscopy and pictures were taken (6× magnification).

αvβ3-receptor = αvβ3-receptor (Homo sapiens, UniProt P05106+P06756); details: Dayam et al, 2006; cited from earlier work
Chain of αvβ3-receptor (P06756 31-889 limits assumed): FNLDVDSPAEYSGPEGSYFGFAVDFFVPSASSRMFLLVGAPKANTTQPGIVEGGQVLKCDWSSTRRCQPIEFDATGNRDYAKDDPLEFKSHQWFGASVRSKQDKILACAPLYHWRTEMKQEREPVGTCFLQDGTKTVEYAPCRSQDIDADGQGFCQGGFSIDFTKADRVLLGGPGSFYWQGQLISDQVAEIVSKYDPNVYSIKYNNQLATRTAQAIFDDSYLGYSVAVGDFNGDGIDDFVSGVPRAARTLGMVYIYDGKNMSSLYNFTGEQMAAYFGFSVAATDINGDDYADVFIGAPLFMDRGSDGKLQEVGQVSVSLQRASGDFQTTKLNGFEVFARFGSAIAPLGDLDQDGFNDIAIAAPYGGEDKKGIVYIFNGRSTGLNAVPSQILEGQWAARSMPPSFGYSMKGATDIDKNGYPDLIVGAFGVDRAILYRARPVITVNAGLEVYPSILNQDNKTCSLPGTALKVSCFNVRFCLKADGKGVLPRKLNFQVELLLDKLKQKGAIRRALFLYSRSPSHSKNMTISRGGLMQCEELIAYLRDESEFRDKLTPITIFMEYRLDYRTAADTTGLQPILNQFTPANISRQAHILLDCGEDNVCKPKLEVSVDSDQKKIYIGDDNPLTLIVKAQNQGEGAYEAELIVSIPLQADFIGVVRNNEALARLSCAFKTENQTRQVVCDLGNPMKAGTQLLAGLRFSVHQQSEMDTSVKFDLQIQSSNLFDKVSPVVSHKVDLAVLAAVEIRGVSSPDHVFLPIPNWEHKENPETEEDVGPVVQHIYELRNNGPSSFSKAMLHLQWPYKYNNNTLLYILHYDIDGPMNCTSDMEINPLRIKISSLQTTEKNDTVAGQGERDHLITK
Chain of αvβ3-receptor (P06756 891-1048 partner limits assumed): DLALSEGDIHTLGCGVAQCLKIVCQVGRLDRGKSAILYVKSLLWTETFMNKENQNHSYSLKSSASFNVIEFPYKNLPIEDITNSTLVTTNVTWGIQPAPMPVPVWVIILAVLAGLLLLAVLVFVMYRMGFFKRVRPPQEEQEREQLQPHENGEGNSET
Chain of αvβ3-receptor (P05106 27-788): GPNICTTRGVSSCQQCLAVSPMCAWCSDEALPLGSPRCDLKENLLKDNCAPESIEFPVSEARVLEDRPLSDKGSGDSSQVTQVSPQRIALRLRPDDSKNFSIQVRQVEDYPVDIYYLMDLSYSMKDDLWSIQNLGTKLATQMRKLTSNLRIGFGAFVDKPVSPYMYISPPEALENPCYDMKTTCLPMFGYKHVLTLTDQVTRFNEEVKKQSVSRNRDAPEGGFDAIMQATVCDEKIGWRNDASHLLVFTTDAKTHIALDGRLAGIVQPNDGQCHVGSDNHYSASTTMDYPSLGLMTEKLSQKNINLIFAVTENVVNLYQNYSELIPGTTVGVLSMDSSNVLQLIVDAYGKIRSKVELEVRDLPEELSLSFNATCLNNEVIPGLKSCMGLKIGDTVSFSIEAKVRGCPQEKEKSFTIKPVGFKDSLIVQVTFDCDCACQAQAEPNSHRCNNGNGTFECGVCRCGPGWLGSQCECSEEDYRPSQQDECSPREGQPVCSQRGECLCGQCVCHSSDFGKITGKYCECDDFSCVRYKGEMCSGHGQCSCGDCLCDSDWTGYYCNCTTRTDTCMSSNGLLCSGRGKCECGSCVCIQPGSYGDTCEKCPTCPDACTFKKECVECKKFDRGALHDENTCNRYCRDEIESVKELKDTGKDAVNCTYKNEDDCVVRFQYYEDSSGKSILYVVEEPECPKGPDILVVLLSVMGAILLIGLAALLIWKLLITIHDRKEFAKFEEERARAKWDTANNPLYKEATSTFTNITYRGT

bleeding surrounding the incision immediately after treatment (ocular angiogenesis): marked diffuse bleeding
Compound: CCOc1cc(C=C2S/C(=N/c3ccc(C(=O)O)cc3)N(C)C2=O)ccc1O (stereo in doubt) [AV-398, 4-({5-[(E)-1-(3-ethoxy-4-hydroxyphenyl)methylidene]-3-methyl-4-oxo-1,3-thiazolan-2-yliden}amino)benzoic acid]
antiproliferative effect against endothelial cells [1]: strong antiproliferative effect | effects on cancer cell lines (cytotoxic activity) [2]: no meanigful effects | neoangiogenesis on treated conjunctivae versus control-treated eyes (ocular angiogenesis; topical after incision): diminished neoangiogenesis | vascularisation of chicken embryo CAM versus vehicle control [3]: markedly decreased vascularisation; also recorded: significant reduction of vascularisation | avβ3 binding affinity (αvβ3-receptor): 240 nM
